Source: PubChem BioAssay (NCI)
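A five-concentration, 48-hour dose response in 96-well plates underlies each endpoint, interpolated linearly between surrounding concentrations. TGI marks complete inhibition of growth.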

Tests used:
Experiment in all cases: growth of human tumour cells (NCI), 48 h
SNB-75 CNS = system: SNB-75 CNS
SF-539 CNS = system: SF-539 CNS
HOP-92 NSCLC = system: HOP-92 NSCLC
NCI-H23 lung = system: NCI-H23 lung
786-0 renal = system: 786-0 renal
DU-145 prostate = system: DU-145 prostate
SR leukemia = system: SR leukemia
MCF7 breast = system: MCF7 breast
SF-268 CNS = system: SF-268 CNS
OVCAR-5 ovarian = system: OVCAR-5 ovarian
EKVX NSCLC = system: EKVX NSCLC
MDA-MB-435 = system: MDA-MB-435
OVCAR-3 ovarian = system: OVCAR-3 ovarian
HOP-62 NSCLC = system: HOP-62 NSCLC
A498 renal = system: A498 renal
OVCAR-4 ovarian = system: OVCAR-4 ovarian
MDA-MB-231 breast = system: MDA-MB-231 breast
HCT-15 colon = system: HCT-15 colon
BT-549 breast = system: BT-549 breast
COLO 205 colon = system: COLO 205 colon
OVCAR-8 ovarian = system: OVCAR-8 ovarian
RXF 393 renal = system: RXF 393 renal
A549 NSCLC = system: A549 NSCLC
SK-MEL-28 melanoma = system: SK-MEL-28 melanoma
U251 CNS = system: U251 CNS
SK-MEL-2 melanoma = system: SK-MEL-2 melanoma
MDA-N = system: MDA-N
CAKI-1 renal = system: CAKI-1 renal
HL-60(TB) leukemia = system: HL-60(TB) leukemia
NCI/ADR-RES ovarian = system: NCI/ADR-RES ovarian
NCI-H522 lung = system: NCI-H522 lung
NCI-H226 lung = system: NCI-H226 lung
SF-295 CNS = system: SF-295 CNS
SNB-19 CNS = system: SNB-19 CNS
KM12 colon = system: KM12 colon
MALME-3M melanoma = system: MALME-3M melanoma
ACHN renal = system: ACHN renal
UACC-257 melanoma = system: UACC-257 melanoma
RPMI-8226 leukemia = system: RPMI-8226 leukemia
UO-31 renal = system: UO-31 renal
SN12C renal = system: SN12C renal
SW-620 colon = system: SW-620 colon
MOLT-4 leukemia = system: MOLT-4 leukemia
PC-3 prostate = system: PC-3 prostate
CCRF-CEM leukemia = system: CCRF-CEM leukemia
T-47D breast = system: T-47D breast
M14 melanoma = system: M14 melanoma
HT29 colon = system: HT29 colon
NCI-H460 lung = system: NCI-H460 lung
HCC-2998 colon = system: HCC-2998 colon
HCT-116 colon = system: HCT-116 colon
K-562 leukemia = system: K-562 leukemia
UACC-62 melanoma = system: UACC-62 melanoma
SK-OV-3 ovarian = system: SK-OV-3 ovarian
IGROV1 ovarian = system: IGROV1 ovarian
SK-MEL-5 melanoma = system: SK-MEL-5 melanoma
TK-10 renal = system: TK-10 renal
LOX IMVI melanoma = system: LOX IMVI melanoma

Measured: TGI

Cc1cc2c(O)c(c1)COCc1cc(C)cc(c1O)COCc1cc(C)cc(c1O)COC2
> 100 µM: SNB-75 CNS | SF-539 CNS | HOP-92 NSCLC | NCI-H23 lung | 786-0 renal | DU-145 prostate | SR leukemia | MCF7 breast | SF-268 CNS | OVCAR-5 ovarian | EKVX NSCLC | MDA-MB-435 | OVCAR-3 ovarian | HOP-62 NSCLC | A498 renal | OVCAR-4 ovarian | MDA-MB-231 breast | HCT-15 colon | BT-549 breast | COLO 205 colon | OVCAR-8 ovarian | RXF 393 renal | A549 NSCLC | SK-MEL-28 melanoma | U251 CNS | SK-MEL-2 melanoma | MDA-N | CAKI-1 renal | HL-60(TB) leukemia | NCI/ADR-RES ovarian | NCI-H522 lung | NCI-H226 lung | SF-295 CNS | SNB-19 CNS | KM12 colon | MALME-3M melanoma | ACHN renal | UACC-257 melanoma | RPMI-8226 leukemia | UO-31 renal | SN12C renal | SW-620 colon | MOLT-4 leukemia | PC-3 prostate | CCRF-CEM leukemia | T-47D breast | M14 melanoma | HT29 colon | NCI-H460 lung | HCC-2998 colon | HCT-116 colon | K-562 leukemia | UACC-62 melanoma | SK-OV-3 ovarian

Cc1cc2c(s1)C(N)CC2=O (stereo unspecified)
> 100 µM: SNB-75 CNS | SF-539 CNS | 786-0 renal | DU-145 prostate | IGROV1 ovarian | SR leukemia | MCF7 breast | SF-268 CNS | OVCAR-5 ovarian | EKVX NSCLC | MDA-MB-435 | OVCAR-3 ovarian | HOP-62 NSCLC | A498 renal | MDA-MB-231 breast | HCT-15 colon | BT-549 breast | COLO 205 colon | OVCAR-8 ovarian | RXF 393 renal | A549 NSCLC | SK-MEL-28 melanoma | U251 CNS | SK-MEL-2 melanoma | SK-MEL-5 melanoma | MDA-N | CAKI-1 renal | HL-60(TB) leukemia | NCI/ADR-RES ovarian | SNB-19 CNS | TK-10 renal | KM12 colon | MALME-3M melanoma | ACHN renal | UACC-257 melanoma | RPMI-8226 leukemia | UO-31 renal | SN12C renal | SW-620 colon | MOLT-4 leukemia | PC-3 prostate | CCRF-CEM leukemia | T-47D breast | M14 melanoma | HT29 colon | NCI-H460 lung | HCC-2998 colon | HCT-116 colon | K-562 leukemia | UACC-62 melanoma | SK-OV-3 ovarian

O=C(CSc1nnc(SCC(=O)NN=C2CCCCC2)s1)NN=C1CCCCC1
> 100 µM: SNB-75 CNS | SF-539 CNS | HOP-92 NSCLC | NCI-H23 lung | 786-0 renal | DU-145 prostate | IGROV1 ovarian | SR leukemia | MCF7 breast | SF-268 CNS | OVCAR-5 ovarian | EKVX NSCLC | MDA-MB-435 | OVCAR-3 ovarian | HOP-62 NSCLC | A498 renal | OVCAR-4 ovarian | MDA-MB-231 breast | HCT-15 colon | BT-549 breast | COLO 205 colon | OVCAR-8 ovarian | RXF 393 renal | A549 NSCLC | SK-MEL-28 melanoma | U251 CNS | SK-MEL-5 melanoma | MDA-N | CAKI-1 renal | NCI/ADR-RES ovarian | NCI-H522 lung | NCI-H226 lung | SF-295 CNS | SNB-19 CNS | TK-10 renal | LOX IMVI melanoma | KM12 colon | MALME-3M melanoma | ACHN renal | UACC-257 melanoma | RPMI-8226 leukemia | UO-31 renal | SN12C renal | SW-620 colon | MOLT-4 leukemia | PC-3 prostate | CCRF-CEM leukemia | T-47D breast | M14 melanoma | HT29 colon | NCI-H460 lung | HCC-2998 colon | HCT-116 colon | K-562 leukemia | UACC-62 melanoma | SK-OV-3 ovarian
